This note sets out measurements from patent US8188121B2, “Substituted pyridines as antiparasitic AZA teraryl compounds” (The University of North Carolina at Chapel Hill, priority 2005, dated 2012).

SMILES strings stand for the structures. Structures can show the parent of a compound that is named as a salt. Where two headings read alike, the source gives them in different places.

Experiment [1] deals with Trypanosoma brucei rhodesiense (T. b. r.). Kind of experiment: In vitro antiprotozoal activity against T. b. r. Type of experiment: cell-based. Here is the method:
(§1) In vitro antiprotozoal activities were measured following established protocols. See Ismail, M. A., et al., J. Med. Chem., 46, 4761-4769 (2003); Stephens, C. E., et al., Bioorg. Med. Chem. Lett., 13, 2065-2069 (2003) (in vitro assay against Leishmania donovani).
(§2) Testing methods are as described above in Example 17.

Experiment [2] relates to Plasmodium falciparum (P. f.). Kind of experiment: In vitro antiprotozoal activity against P. f. It counts as cell-based. Here is the method: as §1, §2
In another experiment the test system is L-6 rat mycoblast cells. Kind of experiment: cells. Here is the method: as §1, §2
The subject of experiment [3] is STIB 900 strain of Trypanosoma brucei rhodesiense. In words: T. b. r. STIB 900 mouse model. Type of experiment: in vivo. Here is the method: The activities of compounds 20, 18, 21, 48, 23c, 24c, 5, 4, and 10 against the STIB 900 strain of Trypanosoma brucei rhodesiense (T. b. r.) in a mouse model are shown in Table 3. […] Groups of four mice were infected intraperitoneally with 2×10^5 bloodstream forms of T. b. r. STIB 900 which originates from a patient in Tanzania. On days 3, 4, 5, and 6 post-infection the experimental groups were treated with the indicated compound, either by the intraperitoneal route, or for prodrugs, by the oral route. Usually the highest tolerated dose was used. The highest tolerated dose was determined in a pretoxicological experiment.
Parasitemia of the mice was checked daily up to day 14 post-infection and thereafter 2 times per week up to day 60. One group of mice was not treated and acted as control. Untreated control animals expire between day 7 and 8 post-infection. For relapsing mice, the day of death was recorded and the survival time determined. For the data shown in Table 3, cures reflect the number of mice that survive and are parasite free for 60 days. Survival reflects the average days of survival.
as §2

The test system of experiment [4] is Leishmania donovani (L. d.). In words: In vitro antiprotozoal activity against L. d. Type of experiment: cell-based. The conditions noted are these: Leishmania donovani, Table 4; read-out: L. d. IC50. Here is the method:
as §1, §2

The mark [5] stands for this setting: 100 mg/kg po, days 3-6 post-infection, average days of survival.
Setting [6] is: Table 1, k/K = thousand, read-out: T. b. r. IC50.
Where [7] appears, read: read-out: CT IC50, Table 1, L-6 cells.
Setting [8] is: Rattus norvegicus, L6, read-out: CT IC50, Table 4, L-6 cells.

A word on the IC50: it is the midpoint of a concentration-inhibition curve.

As to `CON=C(N)c1ccc(-c2ccc(-c3ccc(C(N)=NOC)cc3)cc2)cc1` [Compound 21, [1,1′;4′,1″]Terphenyl-4,4″-bis-N-methoxycarboxamidine], the concentration for half-maximal inhibition (IC50) in experiment [1] (Trypanosoma brucei, RHODESIENSE, Table 1, k/K = thousand, read-out: T. b. r. IC50) amounted to 13.8 µM; in experiment [2] (Plasmodium falciparum, Table 1, k/K = thousand) it was 371 nM; in the experiment on L-6 rat mycoblast cells (Rattus norvegicus, L6, read-out: CT IC50) it was 118 µM. In experiment [3] (setting [5]), the Survival is listed as 20.75 days. Also, the responders at 100 mg/kg in experiment [3] (Trypanosoma brucei, 1440 h, 100 mg/kg po, days 3-6 post-infection, mice surviving parasite free for 60 days, groups of four, read-out: Cures) turned out to be 0%.
As to `CC(=O)O.N=C(N)c1ccc(-c2ccc(-c3ccc(C(=N)N)cc3)nc2)cc1` [Compound 23c, Phenyl[1,1′]pyridyl[4′,1″]phenyl-4,4″-bis-carboxamidine acetate salt], the IC50 in experiment [1] (setting [6]) was 0.002 µM; in experiment [2] (Table 1, k/K = thousand), 10 nM; in the experiment with L-6 rat mycoblast cells (setting [7]) it was 49.9 µM. The molecule also gave a Survival in experiment [3] (20 mg/kg ip, days 3-6 post-infection, average days of survival) of over 60 days. Also, in experiment [3] (20 mg/kg ip, days 3-6 post-infection, mice surviving parasite free for 60 days, groups of four), the Cures is reported as 4/4.
As to `N=C(NO)c1ccc(-c2ccc(-c3ccc(C(=N)NO)cc3)nc2)cc1` [Compound 24c, Phenyl[1,1′]pyridyl[4′,1″]phenyl-4,4″-bis-N-hydroxycarboxamidine], the IC50 was 9.3 µM in experiment [1] (setting [6]); 7600 nM in experiment [2] (Table 1, k/K = thousand); over 184 µM in the experiment on L-6 rat mycoblast cells (setting [7]). For the same molecule, the Survival in experiment [3] (setting [5]) was over 35.75 days. For the same molecule, the Cures in experiment [3] (100 mg/kg po, days 3-6 post-infection, mice surviving parasite free for 60 days, groups of four) is listed as 1/4.
Regarding `Cl.NC(=NO)c1ccc(-c2ccc(-c3ccc(C(N)=NO)nc3)cc2)cn1` [Compound 67, 1,4-Bis-[2′-(N-hydroxyamidinopyridin-5′-yl)]-phenylene hydrochloride salt], the concentration for half-maximal inhibition (IC50) in experiment [1] (setting [6]) came out at 12 µM; in experiment [2] (Table 1, k/K = thousand), 2400 nM; in the experiment with L-6 rat mycoblast cells (setting [7]) it was 8.1 µM. Besides, the Cures in experiment [3] (25 mg/kg po, Table 5) is reported as 0/4. In experiment [3] (25 mg/kg po, Table 5), this molecule displayed a Survival of 16.25 days.
Turning to `N=C(N)c1cnc(-c2ccc(-c3cnc(C(=N)N)cn3)cc2)cn1` [Compound 71, 1,4-Bis-(2′-amidinopyrazin-5′-yl)-phenylene hydrochloride salt], the IC50 in experiment [2] (Plasmodium falciparum, Table 4) turned out to be 5170 nM; in experiment [4], 10000 nM; in the experiment with L-6 rat mycoblast cells (setting [8]) it was 46.5 µM.
On to `N=C(N)c1ncc(-c2ccc(-c3cnc(C(=N)N)nc3)cc2)cn1` [Compound 73, 1,4-Bis-(2′-amidinopyrimidin-5′yl)-phenylene hydrochloride salt], for which the IC50 in experiment [4] was determined as 1720 nM.
The same measure, in the same setting: then `N=C(N)c1ccc(-c2cnc(-c3ccc(C(=N)N)nc3)nc2)cn1` [Compound 77, 2,5-Bis-(2′-amidinopyridin-5′-yl)-pyrimidine hydrochloride salt], with 1830 nM.
With `N=C(N)c1ccc(-c2ccc(-c3ccc(C(=N)N)nc3)cc2)cc1` [Compound 80, Phenyl[1,1′]phenyl[4′,5″]pyridinyl-4,2″-bis-amidine hydrochloride salt], the figures for the IC50 (in experiment [4]; with L-6 rat mycoblast cells (setting [8])) were 84 nM and 2.8 µM, respectively.
Consider `N=C(N)c1ccc(-c2ccc(-c3ccc(C(=N)N)cn3)cc2)cc1` [Compound 83, Phenyl[1,1′]phenyl[4′,2″]pyridinyl-4,5″-bis-amidine hydrochloride salt], for which the IC50 in experiment [4] was 1370 nM; in the experiment on L-6 rat mycoblast cells (setting [8]), 26.7 µM.
For the molecule `N=C(N)c1ccc(-c2ccc(-c3cnc(C(=N)N)nc3)cc2)cc1` [Compound 86, Phenyl[1,1′]phenyl[4′,5″]pyrimidinyl-4,2″-bis-amidine hydrochloride salt], the IC50 in experiment [4] stood at 190 nM.
With `CON=C(N)c1ccc(-c2ccc(-c3ccc(C(N)=NOC)nc3)cn2)cc1.Cl` [Compound 91, Phenyl[1,2′]pyridinyl[5′,5″]pyridinyl-4,2″-bis-N-methoxyamidine hydrochloride salt], the IC50 amounted to 1.98 µM in experiment [1] (Table 4, read-out: T. b. IC50); 2150 nM in experiment [2] (Table 4); 12.8 µM with L-6 rat mycoblast cells (read-out: CT IC50, Table 4, L-6 cells). The Cures in experiment [3] (25 mg/kg ip, Table 5) is on record as 0/4. The Survival in experiment [3] (25 mg/kg ip, Table 5) was determined as 22.25 days.
`N=C(N)c1ccc(-c2ccc(-c3cnc(C(=N)N)cn3)cn2)cc1` [Compound 97, Phenyl[1,2′]pyridinyl[5′,5″]pyrazinyl-4,2″-bis-amidine hydrochloride salt]: the results for the IC50 (in experiment [4]; in the experiment with L-6 rat mycoblast cells (setting [8])) were 15600 nM and 93.4 µM, respectively.
Turning to `N=C(N)c1ccc(-c2ccc(-c3cnc(C(=N)N)nc3)cn2)cc1` [Compound 100, Phenyl[1,2′]pyridinyl[5′,5″]pyrimidinyl-4,2″-bis-amidine hydrochloride salt], in experiment [4], the IC50 came to 2640 nM.
